According to patent publication US20020025508A1, “Process for finding a protease inhibitor” (priority 2000, published 2002):
Residues, ends and D or L forms follow the SMILES beside them. *: point of attachment. Cbz = O=C(OCc1ccccc1)*

Tests used:
Assay type in all cases: cell-based, human
γ-secretase = γ-secretase HTS luciferase reporter assay (Aβ-KKK/Gal4 substrate, SteadyGlo); conditions: different concentrations; for inhibition of Aβ formation (luciferase signal): cell clones Aβ-KKK-ER/40, 59, 65 and Aβ-KKK/52 (also Aβ-KKK/40 for substance B), overnight
From the text: H4 neuroglioma cells (Accession Number HTB 148 at the American Type Culture Collection, Manassas, Va., USA) were stably transfected under standard conditions with the reporter construct pFRLuc (Stratagene) which carries the gene for luciferase which is under the control of a promoter containing the Gal4 DNA binding domain. […] In order to prepare the Aβ-KKK/Gal4 construct, a sequence which contained the N-terminal signal sequence of APP and the first 55 amino acids of Aβ (Shoji, M. et al., Science, 1992; 158:126-129) was attached to the Gal4 coding sequence (Laughan, A. and Gesteland, R., Molec. Cell Biol., 1984, 4:260-267) by genetic engineering methods and cloned into the expression vector pcDNA3neo (Invitrogen). This construct was designated Aβ-KKK/Gal4. In order to insert an ER-retention signal in the substrate of the γ-secretase, the last nucleotides of the Gal4 were modified by genetic engineering methods so that they coded for amino acids KKLI. This construct was named Aβ-KKK-ER/Gal4. The cell clone obtained as described above was used for the second stable transfection with pcDNA3/Aβ-KKK/Gal4 or pcDNA3/Aβ-KKK-ER/Gal4 and the selection was carried out with neomycin under standard conditions (Sambrook and Maniatis, Molecular Cloning: A Laboratory Manual, Cold Spring Harbor Laboratory, Cold Spring Harbor, N.Y., 1989). Individual neomycin-resistant cell clones were tested for expression of luciferase. The clones with the highest expression were used for the substance analyses. All the transfections were carried out using the Fugene transfection system of Boehringer Mannheim in accordance with the manufacturer's instructions.
The doubly stable HTS cell line is seeded onto a 96/384 microtitre plate. When the cells achieved confluence they are incubated with the test substance in question for a specified length of time.
By the presence of an endogenous or exogenous γ-secretase activity in the H4 cells, the substrate (Aβ-KKK/Gal4) is cleaved proteolytically, whereupon the transactivator Gal4 can detach itself from the membrane and enter the cell nucleus. In the cell nucleus, Gal4 binds to the Gal4 DNA binding domain of the reporter construct and thus activates the expression of the luciferase. When a specific γ-secretase inhibitor is present the substrate cannot be cleaved and Gal4 remains bound to the substrate on the cell membrane, leading to a reduction and even total inhibition of the luciferase activity.
Cells are seeded onto 96/[…] well plates in DMEM whole medium (10% FCS, 1% glutamine, 1% penicillin/streptomycin) in a dilution of 1:5. […] Then, the luminescence is measured. […]

[1] = system: Aβ40 and Aβ42 secreted by U373/APP751 cell line; assay: ELISA of extracellular Aβ40 and Aβ42 secreted by U373/APP751 cells
Method: Substance A was also active in a cellular test system in which the extracellular content of Aβ40 and Aβ42 secreted by the U373 cell line (U373: ATCC No. HTB 14) was determined. This cell line, U373/APP751, is an astrocytoma cell line which overexpresses human APP751 and secretes large amounts of Aβ40 (about 1000 pg/ml/4 hours with 5×10^7 cells in 15 ml of medium) and Aβ42 (about 1000 pg/ml/4 hours with 5×10^7 cells in 15 ml of medium). The measurement is carried out by ELISA (Steiner, H. et al., J. Biol. Chem, 1998, 273:32322-32331).

[2] = system: HTS test cell lines Aβ-KKK-ER/59 and Aβ-KKK/52 (H4 cells); assay: Alamar Blue vitality (cytotoxicity) test; conditions: clones Aβ-KKK-ER/59 and Aβ-KKK/52, entire range of concentrations, parallel to luciferase test
Method: A possible toxic effect of the BFA (in different concentrations) on the cells was investigated using an Alamar Blue test (see below) which was carried out in parallel to the luciferase test.
Alamar Blue (Messrs. Biosource International, VE=100 ml, Cat.No. DAL 1100 (AL-01 -100)) was sterile-filtered. The seeding of the cells and substance incubation were carried out as in Example 1.
The Alamar blue incubation was carried out parallel to the luciferase test.
Alamar blue was diluted to 5% with whole medium (DMEM m 4.5 g/l glucose+10% FCS+1% glutamine+1% Pen/Strep). The medium was suction filtered. The cells were washed once with medium or PBS. One hundred microliters of (5%) Alamar blue were added (96 well plate) and a plate was incubated for 1 hour in the incubator at 37° C. and in 5% CO2. Fluorimetric measurement was carried out at an input wavelength of 544 nm, an emission wavelength of 590 nm and a measuring time of 0.3 s/well. The results are given as a percentage of the control.

Structure (SMILES)	inhibition of Aβ formation (luciferase signal) (γ-secretase)	Aβ40 secretion [1]	Aβ42 secretion [1]	BFA effect on luciferase signal (γ-secretase; cell clone Aβ-KKK/52 (without ER retention signal), 6 hours)	loss of vitality (toxic effect on the cells) [2]
Cc1nccn1Cc1ccccn1 [Substance C]	does not inhibit Aβ formation in concentration-dependent manner	–	–	–	–
CCCCNC(=O)[C@@H](C[C@H](O)[C@H](CC1CCCCC1)NCCCC(C)C)C(C)C [Substance A]	inhibits Aβ formation in a manner dependent on concentration	greatly reduced in concentration-dependent manner	increased at sub-inhibitory doses and then also inhibited at higher doses	–	–
CC(C)C(NC(=O)OCc1ccccc1)C(=O)NC(C=O)Cc1ccccc1 (stereo not drawn) [Substance B] (Cbz-Val-Phe-aldehyde; configuration not given here)	does not inhibit Aβ formation in concentration-dependent manner	–	–	–	–
C[C@H]1CCC/C=C/[C@@H]2C[C@H](O)C[C@H]2[C@H](O)/C=C/C(=O)O1 [BFA, Brefeldin A, reference compound]	–	–	–	clear BFA effect could be seen	No loss of vitality
